Converted amounts (≈) assume the structure as drawn. Numbered stars: 1 amine (or outer) side, 2 acyl side, 3 side chain; on linkers, the order of the positions; unused ones are H or OH. Square brackets hold non-standard residues; d marks the D form. Peptide text beside a SMILES is read from it. * marks the point of attachment. hPhe = N[C@@H](CCc1ccccc1)C(=O)O; Morpholide = C1CN(*)CCO1; CO = O=C([*:1])[*:2]
Experiments:
Plasmodium falciparum [1] = assay: Antimalarial activity against Plasmodium falciparum NF54 assessed as inhibition of parasite growth; assay type: functional, organism-based
[2] = Inhibition of Plasmodium falciparum FP2
Plasmodium berghei = assay: Antimalarial activity against liver stage of Plasmodium berghei; assay type: functional, organism-based
Plasmodium falciparum [3] = assay: Antimalarial activity against Plasmodium falciparum W2 assessed as inhibition of parasite growth; assay type: functional, organism-based
Plasmodium falciparum [4] = assay: Antimalarial activity against Plasmodium falciparum Dd2 assessed as inhibition of parasite growth; assay type: functional, organism-based
Plasmodium falciparum [5] = assay: Antimalarial activity against Plasmodium falciparum 3D7 assessed as inhibition of parasite growth; assay type: functional, organism-based
Plasmodium falciparum [6] = assay: Antimalarial activity against Plasmodium falciparum FcB1; assay type: functional, organism-based
Plasmodium falciparum [7] = assay: Antimalarial activity against Plasmodium falciparum F32; assay type: functional, organism-based
Plasmodium falciparum [8] = assay: Antimalarial activity against Plasmodium falciparum infected in mouse assessed as cure rate at 26 to 32 mg/kg/day administered po or ip; assay type: functional
Plasmodium falciparum [9] = assay: Antimalarial activity against Plasmodium falciparum D10 assessed as inhibition of parasite growth; assay type: functional, organism-based
Plasmodium falciparum [10] = assay: Antimalarial activity against chloroquine-resistant Plasmodium falciparum K1 assessed as inhibition of parasite growth; assay type: functional, organism-based
Plasmodium falciparum [11] = assay: Antimalarial activity against Plasmodium falciparum infected in mouse assessed as suppression of parasitemia at 3x10 mg/kg/day, po measured at day 4 post-infection; assay type: functional
Plasmodium falciparum [12] = assay: Antimalarial activity against Plasmodium falciparum infected in mouse assessed as mouse survival at 3x10 mg/kg/day, po; assay type: functional
[13] = Inhibition of Plasmodium falciparum DPAP1 after 30 mins
Plasmodium falciparum [14] = assay: Antimalarial activity against Plasmodium falciparum D6 assessed as inhibition of parasite growth; assay type: functional, organism-based
[15] = Inhibition of beta-hematin formation; assay type: physicochemical

In the case of `Clc1ccc2c(NCCNC(CCN3CCCCC3)c3ccccc3)ccnc2c1` (stereo not drawn), the IC50 (Plasmodium falciparum [1]) is reported as 7.1 nM.
`COc1ccc2nc3cc(Cl)ccc3c(Nc3cccc(Nc4ccnc5cc(Cl)ccc45)c3)c2c1` showed an MIC (Plasmodium falciparum [1]) of 0.25 µg/mL (≈ 0.489 µM).
In the case of `CC(C)C[C@H](NC(=O)c1ccc(CO[C@H]2O[C@@H]3O[C@@]4(C)CC[C@H]5[C@H](C)CC[C@@H]([C@H]2C)[C@@]35OO4)cc1)C(=O)N[C@H](/C=C/S(C)(=O)=O)CCc1ccccc1`, the IC50 [2] is reported as 3500 nM.
`CC(C)C[C@@H](NC(=O)/C=C/c1ccccc1)C(=O)N[C@H](CCc1ccccc1)C(=O)Nc1ccnc2cc(Cl)ccc12` showed an IC50 [2] of 19600 nM.
Work on `O=C(NCCNc1ccnc2cc(Cl)ccc12)N/N=C/c1ccc(O)c(CN2CCN(c3ccnc4cc(Cl)ccc34)CC2)c1O` yielded an IC50 [2] of 3160 nM.
For `COc1cc(NC(C)CCCNC2CCC3(CC2)OOC2(OO3)C3CC4CC(C3)CC2C4)c2ncccc2c1` (stereo not drawn), the IC50 (Plasmodium berghei) was 330 nM and the IC50 (Plasmodium falciparum [3]) was 22 nM.
With `COc1cc(NC(C)CCCNc2ccnc3cc(Cl)ccc23)c2ncccc2c1` (stereo not drawn) the IC50 (Plasmodium falciparum [4]) was 580 nM and the IC50 (Plasmodium falciparum [5]) was 640 nM.
For `CC1(C)COC2(CCC(NC3CCC(Nc4ccnc5cc(Cl)ccc45)CC3)CC2)OO1` (stereo not drawn), the IC50 (Plasmodium falciparum [6]) was 24 nM, the IC50 (Plasmodium falciparum [7]) was 13 nM and the IC50 (Plasmodium falciparum [3]) was 15 nM. The Activity (Plasmodium falciparum [8]) was 100%.
Compound `CC(C)CN(NC(=O)C1CCC2(CC1)OOC1(OO2)C2CC3CC(C2)CC1C3)c1nc(C#N)ncc1Br` (stereo not drawn) has an IC50 [2] of 16.4 nM.
`CC(C)CN(NC(=O)C1CCC(=O)CC1)c1nc(C#N)ncc1Br` gave an IC50 [2] of 58.4 nM.
`Cc1ccc2c(c1)/C(=N/NC(N)=S)C(=O)N2CCNc1ccnc2cc(Cl)ccc12` gave an IC50 [2] of 11600 nM, an IC50 (Plasmodium falciparum [3]) of 51 nM and an IC50 (Plasmodium falciparum [9]) of 79 nM.
With `COc1cc(NC(C)CCCNC(=O)c2ccc(CO[C@H]3O[C@@H]4O[C@@]5(C)CC[C@H]6[C@H](C)CC[C@@H]([C@H]3C)[C@@]46OO5)cc2)c2ncccc2c1` (stereo partly drawn) the IC50 (Plasmodium berghei) was 67 nM and the IC50 (Plasmodium falciparum [3]) was 5.1 nM.
`C[C@H]1[C@H](OCCNCCNc2ccnc3cc(Cl)ccc23)O[C@@H]2O[C@@]3(C)CC[C@H]4[C@H](C)CC[C@@H]1[C@@]24OO3` showed an IC50 (Plasmodium falciparum [4]) of 25.7 nM, an IC50 (Plasmodium falciparum [5]) of 20.5 nM and an IC50 (Plasmodium falciparum [9]) of 21.5 nM.
Compound `C[C@@H]1CC[C@H]2C(CN3CCCCC3[C@H](O)c3cc(C(F)(F)F)nc4c(C(F)(F)F)cccc34)=C(C(F)(F)F)O[C@@H]3O[C@@]4(C)CC[C@@H]1[C@]32OO4` (stereo partly drawn) has an IC50 (Plasmodium falciparum [6]) of 17.2 nM, an IC50 (Plasmodium falciparum [7]) of 15.7 nM and an IC50 (Plasmodium falciparum [10]) of 10.6 nM.
`COc1ccc2nccc([C@@H](O)[C@@H]3C[C@@H]4CCN3C[C@@H]4CC(=O)O[C@@H]3O[C@@H]4O[C@@]5(C)CC[C@H]6[C@H](C)CC[C@@H]([C@H]3C)[C@@]46OO5)c2c1` showed an IC50 (Plasmodium falciparum [6]) of 9.59 nM and an IC50 (Plasmodium falciparum [5]) of 8.95 nM.
With `CCN(CC)Cc1cc(C2CCC3(CC2)OOC2(OO3)C3CC4CC(C3)CC2C4)ccc1O` (stereo not drawn) the “inhibition (INH)” value (Plasmodium falciparum [11]) was 99.8%, the IC50 (Plasmodium falciparum [10]) was 5.7 nM and the Survival (Plasmodium falciparum [12]) was greater than 20 days. For the same compound, the IC50 (Plasmodium falciparum [3]) was 5.1 nM.
With `CC(=O)O[C@@]1(C)CC[C@@H]2C[C@@H]1OO[C@]2(/C=C\c1ccc(Cl)cc1)c1ccccc1` the IC50 (Plasmodium falciparum [10]) was 23 nM.
With `CC(C)C[C@H](NC(=O)N1CCOCC1)C(=O)N[C@@H](CCc1ccccc1)[C@@H]1OOC2(O1)C1CC3CC(C1)CC2C3` (stereo partly drawn) the IC50 [2] was 510 nM and the IC50 (Plasmodium falciparum [5]) was 35.3 nM.
For `CC(C)C[C@H](NC(=O)C1CCC2(CC1)OOC1(OO2)C2CC3CC(C2)CC1C3)C(=O)N[C@H](/C=C/S(=O)(=O)c1ccccc1)CCc1ccccc1` (stereo partly drawn), the IC50 [2] was 1800 nM, the IC50 (Plasmodium falciparum [3]) was 18.5 nM and the IC50 (Plasmodium falciparum [5]) was 28.4 nM.
Work on `CC(C)C[C@H](NC(=O)C1CCC(=O)CC1)C(=O)N[C@H](/C=C/S(=O)(=O)c1ccccc1)CCc1ccccc1` yielded an IC50 [2] of 69.1 nM, an IC50 (Plasmodium falciparum [3]) of 26.2 nM and an IC50 (Plasmodium falciparum [5]) of 288 nM.
Work on `CCCCC(C(=O)COc1c(F)c(F)cc(F)c1F)n1cc([C@@](C)(NC(=O)OCC[C@@]2(CCC(=O)NCCCN3CCCC3=O)OOC3(O2)C2CC4CC(C2)CC3C4)C2CCCC2)nn1` (stereo partly drawn) yielded an IC50 [13] of 10000 nM and an IC50 (Plasmodium falciparum [9]) of 4 nM.
`CCCCC(C(=O)COc1c(F)c(F)cc(F)c1F)n1cc([C@@](C)(N)C2CCCC2)nn1` (stereo partly drawn) showed an IC50 [13] of 70 nM and an IC50 (Plasmodium falciparum [9]) of 5.2 nM.
With `CC(C)(C[C@H](NC(=O)N1CCOCC1)C(=O)N[C@H](/C=C/S(=O)(=O)c1ccccc1)CCc1ccccc1)OC(=O)OCC[C@@]1(CCC(=O)NCCCN2CCCC2=O)OOC2(O1)C1CC3CC(C1)CC2C3` (stereo partly drawn) the IC50 [2] was 50000 nM and the IC50 (Plasmodium falciparum [3]) was 600 nM.
In the case of `CC(C)(O)C[C@H](NC(=O)N1CCOCC1)C(=O)N[C@H](/C=C/S(=O)(=O)c1ccccc1)CCc1ccccc1`, the IC50 [2] is reported as 1020 nM and the IC50 (Plasmodium falciparum [3]) is reported as 180 nM.
`COc1ccc(C[C@H](NC(=O)OC2CCCC3(C2)OOC2(O3)C3CC4CC(C3)CC2C4)C(=O)N[C@H]2[C@@H](O)[C@H](n3cnc4c(N(C)C)ncnc43)O[C@@H]2CO)cc1` (stereo partly drawn) showed an IC50 (Plasmodium falciparum [3]) of 10 nM.
Compound `CC(C)C[C@H](NC(=O)N1CCOCC1)C(=O)N[C@H](C=O)CCc1ccccc1` ({Morpholide-CO}-Leu-[hPhe]-aldehyde) has an IC50 [2] of 16.3 nM.
Work on `C[C@@H]1C(=O)C[C@H]2C[C@@H]1OO[C@@]2(C)/C=C\c1ccc(C(F)(F)F)cc1C(F)(F)F` [ARTEFLENE] yielded an IC50 (Plasmodium falciparum [10]) of 15 nM.
With `C[C@@H]1CC[C@H]2[C@@H](C)C(=O)O[C@@H]3O[C@@]4(C)CC[C@@H]1[C@]32OO4` [ARTEMISININ] the IC50 (Plasmodium falciparum [10]) was 47 nM.
Compound `CCN(CC)CCCC(C)Nc1ccnc2cc(Cl)ccc12` (stereo not drawn) [CHLOROQUINE] has an MIC (Plasmodium falciparum [1]) of 0.125 µg/mL (≈ 0.391 µM).
`Clc1ccc2c(NCCCN3CCC(NC(c4ccccn4)c4ccccn4)CC3)ccnc2c1` [DM-1157] gave an IC50 (Plasmodium falciparum [14]) of 0.9 nM, an IC50 (Plasmodium falciparum [4]) of 1.6 nM and an IC50 [15] of 1600 nM.
Compound `COc1ccc(C[C@H](N)C(=O)N[C@H]2[C@@H](O)[C@H](n3cnc4c(N(C)C)ncnc43)O[C@@H]2CO)cc1` [PUROMYCIN] has an IC50 (Plasmodium falciparum [3]) of 42 nM.
